One series concerns the target T1, Cdc42 (Homo sapiens, UniProt P60953).
T1 construct: 6His; made in house; host or cells: E. coli BL21DE3, only by the words 'analogous procedures' to the CBD preparation
The experiment in a line: Analysis of Cdc42 activation: fluorescence of dye-labeled WASP fragment. It is filed as binding. As for the experimental part:
Analysis of Cdc42 Activation. A solution of the WASP conjugate (300 nM) in a assay buffer (50 mM Tris-HCl, pH 7.6, 50 mM NaCl, 5 mM MgCl2, 1 mM DTT) was mixed 1:1 (v/v) with solutions of Cdc42, pre-equilibrated with 10 mM GDP or GTPγS as described below. Emission at 630 nm and excitation at 600 nm were used to acquire excitation and emission spectra, respectively. For nucleotide dependence, Cdc42 (500 nM) was preincubated with varying concentrations of GTPγS (1-500 nM).

A short description of series [1]: Dye photo-bleaching under tungsten lamp irradiation. Type of series: physicochemical. The protocol:
Photo-bleaching. All samples contained 1 mM dye in a final volume of 10 mL. For nitrogen and oxygen saturation the samples were bubbled with solvent-saturated gas for 30 min. A 90 W halogen tungsten lamp was employed for irradiation, with a fan used for cooling. The temperature of samples was 25±1° C. during reactions. The absorption spectrum of each sample was measured before irradiation and after every 10 h period. For the trapping experiment thioanisole (1.0 M) was added to oxygen-saturated butanol solution of dye 1b. After 60 h of irradiation the reaction mixture was analyzed by GC-MS for products formed. The products, methylphenylsulfoxide and methylphenyl sulfone, were identified by comparison with authentic samples.
Dyes used in living cells must be photostable to provide many sequential images and to obtain sufficient light from minimal amounts of exogenous labeled material. The photostability of the new dyes was characterized by exposing them to constant illumination from a tungsten lamp filtered through glass, a broad spectrum light source that provided essentially equal intensity throughout the spectral range where the dyes would be irradiated in vivo. A fan was used to prevent heating, and dye solutions were adjusted for equal maximal absorbance, kept below 1 μM to minimize the inner filter effect. […] Photo-bleaching followed first-order kinetics in all cases.

A further series concerns Erk2. Nature of the series: Fluorescence response of dye-labeled Erk2 to phosphorylation. It is filed as biochemical. The text has this: This Example illustrates that the dyes of the invention can be attached directly to a protein of interest (e.g. Erk), where the dyes respond to conformational changes and phosphorylation. In particular, the I-TBA-3CNPh dye was attached to cysteine 214 of the MAP kinase Erk2, where it responded to Erk phosphorylation. A structure for the I-TBA-3CNPh dye is provided below.
This model was based on tryptic digestion combined with mass spectroscopic sequencing of the labeled protein, and on docking studies. The lighter (yellow) residues represent two lysines undergoing hydrogen bonding with the dye, and a tryptophan interacting through π-π stacking. Phosphorylation of the purple residues altered the conformation of the protein, affecting the tryptophan interaction and perturbing some of the hydrogen bonds.

The test system of a further series is Cdc42 activation. Nature of the series: Peripheral Cdc42 activation in cells treated with cytoskeletal agents. Type of series: cell-based. The text has this: Microtubules or actin may direct Cdc42 activation to specific peripheral locations. This possibility was explored by treating cells with the microtubule-depolymerizing agents nocodazole and colchicine, or with cytochalasin D, an inhibitor of actin polymerization. […] Microtubules may therefore localize interactions between Cdc42 and guanine nucleotide exchange factors by directing vesicle trafficking or regulating events at adhesion complexes.

The nature of series [2]: Photophysical properties of dyes in various solvents (absorbance, emission, quantum yield). Type of series: physicochemical. Details: ε × F / ε × Φ: unit not given here. The protocol:
Analytical grade reagents were purchased from major suppliers. […] Emission and excitation spectra were obtained using a Spex Fluorolog 2 spectrofluorometer at 23° C. […] Demas et al., J. Phys. […] All operations with dyes were performed under dim light. Flasks containing dyes were wrapped with aluminum foil.

Series [3] in a line: Quantum yield of triplet state formation. It is filed as physicochemical. Particulars: in ethanol.
Series [4] is described as follows: Water solubility and aggregation of dyes in water (absorbance spectra).
Text: Labeling was accomplished only by including greater than 5% DMSO as cosolvent.

T1 sequence (P60953 whole entry, species assumed): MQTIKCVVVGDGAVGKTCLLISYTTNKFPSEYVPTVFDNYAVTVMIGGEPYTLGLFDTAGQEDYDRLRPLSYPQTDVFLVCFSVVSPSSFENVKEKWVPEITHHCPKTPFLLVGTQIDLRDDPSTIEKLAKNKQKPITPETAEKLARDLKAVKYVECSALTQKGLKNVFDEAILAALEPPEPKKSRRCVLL

In the case of `CCN1/C(=C/C=C/C=C/C2=[N+](CCCCCC(=O)O)c3ccc(S(=O)(=O)O)cc3C2(C)C)C(C)(C)c2cc(S(=O)(=O)[O-])ccc21` [Cy5, reference compound], at Cdc42 (control experiments, WASP fragment labeled with Cy3 or Cy5), the “change in fluorescence intensity of cyanine-labeled WASP fragment” value is recorded as “no change in fluorescence intensity was observed”. In addition, the entries for the “Absolute rate constant of dye photo-bleaching, kph × 10^6” value (from here on “Absolute rate constant”) in series [1] (BuOH) and in series [1] (MeOH) were 0.77 s^−1 and 1.0 s^−1, respectively.
With `CC1(C)/C(=C\C=C\C=C2C(=O)N(Cc3cccc(C#N)c3)C(=S)N(Cc3cccc(C#N)c3)C2=O)N(CCCNC(=O)CI)c2ccc(S(=O)(=O)O)cc21` [I-TBA-3CNPh], the “fluorescence change of dye-labeled Erk2” value in the series on Erk2 (incubation with MEK kinase and ATP) is listed as “phosphorylation-induced increase in fluorescence”.
`COc1cc2c(c(OC)c1OC)-c1ccc(OC)c(=O)cc1[C@@H](NC(C)=O)CC2` [colchicine]: the “effect on peripheral Cdc42 activation” value in the series on Cdc42 activation is “markedly affected peripheral Cdc42 activation”.
Still for that read-out and setting: under `C=C1[C@@H](C)[C@H]2[C@H](Cc3ccccc3)NC(=O)[C@]23[C@H](OC(C)=O)/C=C/[C@@](C)(O)C(=O)[C@@H](C)C/C=C/[C@H]3[C@@H]1O` [cytochalasin D] stands “Only nocodazole and colchicine markedly affected peripheral Cdc42 activation”.
On to `CCN1/C(=C\C=C\C=C2C(=O)N(C)C(=S)N(C)C2=O)Sc2ccccc21` [dye 1b, 1,3-Dimethyl-5-[(2E,4E)-4-(3-ethyl-1,3-benzothiazol-2(3H)-ylidene)-but-2-enylidene]-2-thioxodihydropyrimidine-4,6(1H,5H)-dione], for which the “Abs. λmax” value in series [2] (solvent BuOH) turned out to be 595 nm; in series [2] (solvent C6H6), 600 nm; in series [2] (solvent DMF), 595 nm; in series [2] (solvent MeOH), 583 nm; in series [2] (solvent OcOH) it was 598 nm. Moreover, the “Emission λmax” value in series [2] (solvent BuOH) came to 613 nm; in series [2] (solvent C6H6), 617 nm; in series [2] (solvent DMF) it was 613 nm; in series [2] (solvent MeOH), 606 nm; in series [2] (solvent OcOH) it was 615 nm. Besides, the “Φ (quantum yield of fluorescence)” value in series [2] (solvent BuOH) turned out to be 0.26; in series [2] (solvent C6H6), 0.37; in series [2] (solvent DMF) it was 0.32; in series [2] (solvent MeOH) it was 0.13; in series [2] (solvent OcOH), 0.52. In addition, the “ε (molar extinction coefficient)” value in series [2] (solvent BuOH) is on record as “(188000)”; in series [2] (solvent C6H6), “(184000)”; in series [2] (solvent DMF), “(194000)”; in series [2] (solvent MeOH), “(134000)”; in series [2] (solvent OcOH) it was “(220000)”. For the same molecule, the “ε × F” value in series [2] (solvent BuOH) was 49000; in series [2] (solvent C6H6), 68000; in series [2] (solvent DMF) it was 62000; in series [2] (solvent MeOH), 18000; in series [2] (solvent OcOH), 115000. Also, the “ΦT, quantum yield of triplet state formation” value in series [3] is reported as 0.008. The “Absolute rate constant” value in series [1] (BuOH) came out at 5.2 s^−1; in series [1] (MeOH), 4.3 s^−1.
For `CN1C(=O)C(=C/C=C/C=C2/Sc3ccccc3N2CCCS(=O)(=O)[O-])C(=O)N(C)C1=S.[Na+]` [dye 1c, Sodium 3-[(2E)-2-[(2E)-4-(1,3-Dimethyl-4,6-dioxo-2-thioxotetrahydro-pyrimidin-5(2H)-ylidene)but-2-enylidene]-1,3-benzothiazol-3(2H)-yl]propane-1-sulfonate], in series [4] (in words), the water solubility result is “significantly improved”.
Consider `CN1\C(=C/C=C/C=C2/C(=O)c3ccccc3S2(=O)=O)C(C)(C)c2ccccc21` [dye 4a, (2Z)-2-[(2E,4Z)-4-(1,3,3-Trimethyl-1,3-dihydro-2H-indol-2-ylidene)-but-2-enylidene]-1-benzothiophen-3(2H)-one 1,1-Dioxide], for which the “Abs. λmax” value is 587 nm in series [2] (solvent BuOH); 571 nm in series [2] (solvent C6H6); 586 nm in series [2] (solvent DMF); 586 nm in series [2] (solvent MeOH); 587 nm in series [2] (solvent OcOH). Further, the “Emission λmax” value in series [2] (solvent BuOH) stood at 618 nm; in series [2] (solvent C6H6), 603 nm; in series [2] (solvent DMF) it was 615 nm; in series [2] (solvent MeOH), 615 nm; in series [2] (solvent OcOH), 617 nm. The “Φ (quantum yield of fluorescence)” value is listed as 0.54 in series [2] (solvent BuOH); 0.42 in series [2] (solvent C6H6); 0.97 in series [2] (solvent DMF); 0.08 in series [2] (solvent MeOH); 0.98 in series [2] (solvent OcOH). Besides, the “ε (molar extinction coefficient)” value in series [2] (solvent BuOH) is reported as “(134000)”; in series [2] (solvent C6H6) it was “(109000)”; in series [2] (solvent DMF) it was “(143000)”; in series [2] (solvent MeOH) it was “(143000)”; in series [2] (solvent OcOH) it was “(125000)”. Also, the “ε × F” value in series [2] (solvent BuOH) was 72000; in series [2] (solvent C6H6) it was 46000; in series [2] (solvent DMF) it was 140000; in series [2] (solvent MeOH) it was 12000; in series [2] (solvent OcOH), 123000. The “Absolute rate constant” value in series [1] (BuOH) was 0.65 s^−1; in series [1] (MeOH), 0.28 s^−1.
On to `COC(=O)Nc1nc2ccc(C(=O)c3cccs3)cc2[nH]1` [nocodazole], for which the “effect on peripheral Cdc42 activation” value in the series on Cdc42 activation was “markedly affected peripheral Cdc42 activation”.
With “Sodium 3-{(2Z)-5-2-[(2E,4Z)-4-(1,1-Dioxido-3-oxo-1-benzothien-2(3H)-ylidene)but-2-enylidene]-3,3-dimethyl-2,3-dihydro-1H-indol-1-yl}propane-1-sulfonate [dye 4b]”, the “concentration at which dye did not aggregate” value in series [4] (in water, absorbance spectrum) was “greater than 250 μM”.
Consider “labeled Erk2 protein: MAP kinase Erk2 with I-TBA-3CNPh dye attached to cysteine 214”, for which, in the series with Erk2 (Western blots, substrate Elk), the “phosphorylation activity of labeled Erk2” value is “retains phosphorylation activity”.

B1: labeled WASP fragment: WASP fragment (residues 201-320, F271C) derivatized with S—SO dye 2e (conjugate)
chain: DIQNPDITSSRYRGLPAPGPSPADKKRSGKKKISKADIGAPSGFKHVSHVGWDPQNGFDVNNLDPDLRSLCSRAGISEAQLTDAETSKLIYDFIEDQGGLEAVRQEMRRQEPLPPPPPPS
modifications: left off: small tags and cut ends
notes: WASP fragment (residues 201-320, F271C) derivatized with S—SO dye 2e
Turning to B1, the “increase in fluorescence intensity” value with Cdc42 (incubated with activated Cdc42) is 300%.
